Starred links: 1 amine or outer side, 2 acyl side, 3 side chain; linkers in the order of their positions; H or OH if unused. Non-standard residues stand in square brackets, D forms with d. Residues, ends and D or L forms follow the SMILES beside them. *: point of attachment. X1 = O=C([C@H]1CSC([C@@H](Cc2ccccc2)N[*:1])=N1)[*:2]; Allyl(1,1-Me2) = C=CC(C)(C)*
Columns and labels:
[1] = target: wild-type HIV-1 integrase (Human immunodeficiency virus type 1 group M subtype B, UniProt P04585); assay type: biochemical; conditions: at 100 µg/mL
[2] = cited from earlier work
[3] = test system: adipocyte differentiation; conditions: cited from earlier work
[4] = test system: HIV integrase; conditions: cited from earlier work
[5] = test system: HIV-infected 1A2 cells (a subclone of CEM-SS TART cells); assay: Cytoprotective cell-based anti-HIV assay; conditions: at 78 µM

SMILES: O=C(NCCc1ccccc1)NCCc1ccccc1C(=O)NCCc1ccccc1 [Compound 3, Molleurea A]
- HIV-1 integrase inhibition at single concentration [1]: no activity

SMILES: O=C(NCCc1ccccc1)NCCc1ccccc1 [N, N’-diphenethylurea]
- Antidepressant action [2]: act as an antidepressant
- Promotion of adipocyte differentiation [3]: promote adipocyte differentiation

SMILES: CC(C)C[C@@H]1NC(=O)[C@@H]2CCCN2C(=O)[C@H](C(C)C)NC(=O)c2csc(n2)CNC(=O)c2csc(n2)[C@H](CCC(N)=O)NC1=O [dolastatin 3]
- HIV integrase inhibition activity [4]: HIV integrase inhibition activity

SMILES: C=CC(C)(C)O[C@H](C)[C@@H]1NC(=O)[C@H]2CSC(=N2)[C@@H](Cc2ccccc2)NC(=O)[C@@H]2CCCN2C(=O)[C@H](CO)NC(=O)[C@H](CC(C)C)NC1=O [Compound 1, Mollamide E] (cyclo(LSP[X1]T(Allyl(1,1-Me2))))
- HIV-1 integrase inhibition at single concentration [1]: no activity
- HIV inhibition in cytoprotective assay at single concentration [5]: did not show any inhibition
